According to patent US7645752B2, “Sulfonyl substituted 1H-indoles as ligands for the 5-hydroxytryptamine receptors” (Wyeth LLC, priority 2006, dated 2010):
Like-named read-outs stand apart in the source and are kept apart here.

Biological target: T1, human cloned 5-HT6 receptors (Homo sapiens, UniProt P50406)
T1 construct: expressed in transfected cells; host or cells: HeLa cells
Assay: 5-HT6 binding affinity, [3H]-LSD displacement on membranes of Hela cells
Conditions: for inhibition at 1 µM: 5-HT6 binding, at 1 micromole, read-out: % inhibition at 1 micromole
Method: The affinity of test compounds for the 5-HT6 receptor is evaluated in the following manner. Cultured Hela cells expressing human cloned 5-HT6 receptors are harvested and centrifuged at low speed (1,000×g) for 10.0 min to remove the culture media. The harvested cells are suspended in half volume of fresh physiological phosphate buffered saline solution and recentrifuged at the same speed. This operation is repeated. The collected cells are then homogenized in ten volumes of 50 mM Tris.HCl (pH 7.4) and 0.5 mM EDTA. The homogenate is centrifuged at 40,000×g for 30.0 min and the precipitate is collected. The obtained pellet is resuspended in 10 volumes of Tris.HCl buffer and recentrifuged at the same speed. The final pellet is suspended in a small volume of Tris.HCl buffer and the tissue protein content is determined in aliquots of 10-25 microliter volumes. […] The volume of the suspended cell membranes is adjusted to give a tissue protein concentration of 1.0 mg/mL of suspension. The prepared membrane suspension (10 times concentrated) is aliquoted in 1.0 mL volumes and stored at −70° C. until used in subsequent binding experiments.
Binding experiments are performed in a 96 well microtiter plate format in a total volume of 200 microliters. […] The test compounds are added in 20.0 microliter volume.
The bound complex caught on the filter disk is allowed to air dry and the radioactivity is measured in a Packard TopCount® equipped with six photomultiplier detectors, after the addition of 40.0 microliter Microscint®-20 scintillant to each shallow well.
Binding in the presence of varying concentrations of test compound is expressed as a percentage of specific binding in the absence of test compound. The results are plotted as log % bound versus log concentration of the test compound.

[1] = Table 1, [3H]-LSD 3.0 nM, Hela cell membranes, read-out: Ki (nM) @ 5-HT6 receptor

T1 sequence (P50406 whole entry): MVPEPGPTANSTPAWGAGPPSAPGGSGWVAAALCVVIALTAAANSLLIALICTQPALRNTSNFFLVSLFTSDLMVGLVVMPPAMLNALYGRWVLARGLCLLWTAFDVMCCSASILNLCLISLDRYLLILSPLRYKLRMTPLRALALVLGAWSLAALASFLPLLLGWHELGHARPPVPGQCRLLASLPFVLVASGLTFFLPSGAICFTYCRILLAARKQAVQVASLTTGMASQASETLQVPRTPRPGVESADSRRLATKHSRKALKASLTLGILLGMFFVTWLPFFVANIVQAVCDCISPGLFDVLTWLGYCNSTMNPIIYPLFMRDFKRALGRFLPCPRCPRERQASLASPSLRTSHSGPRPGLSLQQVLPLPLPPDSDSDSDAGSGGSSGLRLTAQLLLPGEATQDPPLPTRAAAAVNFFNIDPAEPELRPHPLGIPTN

SMILES | Ki [1] | inhibition at 1 µM (Table 1) | further results
O=S(=O)(c1ccccc1)c1c[nH]c2c(CCN3CCOCC3)cccc12 [Example 28, 7-(2-morpholin-4-ylethyl)-3-(phenylsulfonyl)-1H-indole] | 99 nM | – | –
NCCc1ccc2[nH]cc(S(=O)(=O)c3ccccc3)c2c1 [Example 12, {2-[3-(phenylsulfonyl)-1H-indol-5-yl]ethyl}amine] | – | – | Ki: 7 nM
CCC(C)CNCCc1cccc2[nH]cc(S(=O)(=O)c3cccc(F)c3)c12 (stereo not shown) [Example 79, {2-[3-(3-Fluorophenylsulfonyl)-1H-indol-4-yl]-ethyl}-(2-methyl-butyl)-amine] | 120 nM | – | –
O=S(=O)(c1cccc(F)c1)c1c[nH]c2cccc(CCNC3CCCC3)c12 [Example 69, N-{2-[3-(3-fluorophenylsulfonyl)-1H-indol-4-yl]ethyl}cyclopentanamine] | 78 nM | – | –
O=S(=O)(c1ccccc1)c1c[nH]c2cc(CCNC3CCCCC3)ccc12 [Example 94, N-{2-[3-(phenylsulfonyl)-1H-indol-6-yl]ethyl}cyclohexanamine] | – | 51% | –
CN(CCO)CCc1cccc2[nH]cc(S(=O)(=O)c3cccc(F)c3)c12 [Example 84, 2-({2-[3-(3-Fluorophenylsulfonyl)-1H-indol-4-yl]-ethyl}-methyl-amino)-ethanol] | – | 73% | –
O=S(=O)(c1cccc(F)c1)c1c[nH]c2cccc(CCN3CCOCC3)c12 [Example 76, 4-(2-morpholin-4-ylethyl)-3-(3-fluorophenylsulfonyl)-1H-indole] | – | 62% | –
CN(C)CCCNCCc1cccc2[nH]cc(S(=O)(=O)c3cccc(F)c3)c12 [Example 83, N′-{2-[3-(3-Fluorophenylsulfonyl)-1H-indol-4-yl]-ethyl}-N,N-dimethyl-propane-1,3-diamine] | – | 42% | –
CCN(CC)CCc1ccc2[nH]cc(S(=O)(=O)c3ccccc3)c2c1 [Example 8, N,N-diethyl-N-{2-[3-(phenylsulfonyl)-1H-indol-5-yl]ethyl}amine] | 17 nM | – | –
O=S(=O)(c1cccc(F)c1)c1c[nH]c2cccc(CCN3CCCC3)c12 [Example 74, 3-(3-fluorophenylsulfonyl)-4-(2-pyrrolidin-1-ylethyl)-1H-indole] | 72 nM | – | –
O=S(=O)(c1cccc(F)c1)c1c[nH]c2cccc(CCNC3CCCCC3)c12 [Example 70, N-{2-[3-(3-fluorophenylsulfonyl)-1H-indol-4-yl]ethyl}cyclohexanamine] | 180 nM | – | –
CN(CCc1ccc2c(S(=O)(=O)c3ccccc3)c[nH]c2c1)C1CCCCC1 [Example 96, N-cyclohexyl-N-methyl-N-{2-[3-(phenylsulfonyl)-1H-indol-6-yl]ethyl}amine] | – | 75% | –
CC(C)(C)CNCCc1ccc2c(S(=O)(=O)c3ccccc3)c[nH]c2c1 [Example 106, N-(2,2-dimethylpropyl)-N-{2-[3-(phenylsulfonyl)-1H-indol-6-yl]ethyl}amine] | – | 67% | –
O=S(=O)(c1ccccc1)c1c[nH]c2c(CCN3CCCCC3)cccc12 [Example 27, 3-(phenylsulfonyl)-7-(2-piperidin-1-ylethyl)-1H-indole] | 13 nM | – | –
CCN(C)CCc1ccc2[nH]cc(S(=O)(=O)c3ccccc3)c2c1 [Example 7, N-ethyl-N-methyl-N-{2-[3-(phenylsulfonyl)-1H-indol-5-yl]ethyl}amine] | 7 nM | – | –
O=S(=O)(c1ccccc1)c1c[nH]c2ccc(CCNC3CC3)cc12 [Example 4, N-{2-[3-(phenylsulfonyl)-1H-indol-5-yl]ethyl}cyclopropanamine] | 15 nM | – | –
O=S(=O)(c1ccccc1)c1c[nH]c2cc(CCN3CCNCC3)ccc12 [Example 101, 3-phenylsulfonyl-6-(2-piperazin-1-yl-ethyl)-1H-indole] | – | 55% | –
CCNCCc1cccc2[nH]cc(S(=O)(=O)c3cccc(F)c3)c12 [Example 64, N-ethyl-N-{2-[3-(3-fluorophenylsulfonyl)-1H-indol-4-yl]ethyl}amine] | – | 57% | –
O=S(=O)(c1cccc(F)c1)c1c[nH]c2cccc(CCN3CCCCC3)c12 [Example 75, 3-(3-fluorophenylsulfonyl)-4-(2-piperidin-1-ylethyl)-1H-indole] | – | 69% | –
